A short description of one data set: Log D (shake-flask). The format is physicochemical. As to conditions: octanol/buffer. The procedure: The determination of log D was based on the shake-flask principle. The compound(s) of the present invention was slurried in an octanol-saturated buffer solution and sonicated to promote dissolution. The solution was filtered to remove any insoluble. After an initial sample was taken, the solution volume is adjusted to 10 ml, and a known volume of buffer-saturated octanol is added. The two-phase solution is mixed, then separated by centrifugation. A second sample from the bottom layer (aqueous layer) was then taken. Both samples, which represented the solution concentrations of the compound before and after addition of octanol, were determined by LC/MS/MS. The determined concentrations were used to calculated the log D value.

A short description of another data set: Thermodynamic solubility. Particulars: aqueous buffer, thermodynamic from solid, 25° C., 100 mM phosphate buffer at pH 7.4. The data set is classed as physicochemical. The text has this:
An aliqout of the saturated solution was then taken and its concentration measured by liquid chromatography/tandem mass spectrometry (LC/MS/MS). LC/MS/MS experimental conditions and instrumental parameters are described in detail in the LC/MS/MS section.

Turning to `CN(CCO)C(=O)c1ccc(C(=C2CCN(Cc3cscn3)CC2)c2cccc3cccnc23)cc1` [compound of the invention, N-(2-hydroxyethyl)-N-methyl-4-(quinolin-8-yl(1-(thiazol-4-ylmethyl)piperidin-4-ylidene)methyl)benzamide], the logD in “Log D (shake-flask)” was 1.6. Further, the solubility at 24 h in “Thermodynamic solubility” was more than 500 µM.

Values taken from US7977355B2, “N-(2-hydroxyethyl)-N-methyl-4-(quinolin-8-yl(1-(thiazol-4-ylmethyl)piperidin-4-ylidene)methyl” (Astrazeneca AB, priority 2006, dated 2011).
